# In patent US4291164A, “Cephalosporin analogs and methods for production thereof” (Kyowa Hakko Kogyo Co., Ltd., priority 1978, dated 1981):
# Where two headings read alike, the source gives them in different places.
# Key:
# Type in all cases: cell-based
# [1] = test system: Klebsiella pneumoniae Y60; test: Antibacterial activity, Heart Infusion Agar Dilution Method, Klebsiella pneumoniae Y60; settings: for MIC: pH 7.2, read-out: Minimum Inhibitory Concentration
# Escherichia coli Juhl = test: Antibacterial activity, Heart Infusion Agar Dilution Method, Escherichia coli Juhl
# Proteus vulgaris 6897 = test: Antibacterial activity, Heart Infusion Agar Dilution Method, Proteus vulgaris 6897; settings: for MIC: pH 7.2, read-out: Minimum Inhibitory Concentration
# Procedure: (§1) The antibacterial activity of the compounds obtained in the above Examples 24, 26, 28, 30, 32, 34, 36, 38, 40 and 41 are determined by Heart Infusion Agar Dilution Method (pH 7.2). Cefazolin is used as a reference.
# Pseudomonas putida F264 = test: Antibacterial activity, Heart Infusion Agar Dilution Method, Pseudomonas putida F264; settings: pH 7.2, read-out: Minimum Inhibitory Concentration
# Proteus mirabilis 1287 = test: Antibacterial activity, Heart Infusion Agar Dilution Method, Proteus mirabilis 1287; settings: for MIC: pH 7.2, read-out: Minimum Inhibitory Concentration
# Procedure: as §1
# Proteus morganii KY4298 = test: Antibacterial activity, Heart Infusion Agar Dilution Method, Proteus morganii KY4298; settings: for MIC: Morganella morganii, pH 7.2, read-out: Minimum Inhibitory Concentration
# Procedure: as §1
# [2] = test system: Staphylococcus aureus 209p; test: Antibacterial activity, Heart Infusion Agar Dilution Method, Staphylococcus aureus 209p; settings: pH 7.2, read-out: Minimum Inhibitory Concentration
# Procedure: as §1
# [3] = test system: Klebsiella pneumoniae 8045; test: Antibacterial activity, Heart Infusion Agar Dilution Method, Klebsiella pneumoniae 8045; settings: for MIC: pH 7.2, read-out: Minimum Inhibitory Concentration
# Procedure: as §1
# Serratia marcescens T55 = test: Antibacterial activity, Heart Infusion Agar Dilution Method, Serratia marcescens T55; settings: for MIC: pH 7.2, read-out: Minimum Inhibitory Concentration
# [4] = test system: Staphylococcus aureus Smith; test: Antibacterial activity, Heart Infusion Agar Dilution Method, Staphylococcus aureus Smith; settings: pH 7.2, read-out: Minimum Inhibitory Concentration
# Procedure: as §1
# [5] = test system: Staphylococcus epidermidis; test: Antibacterial activity, Heart Infusion Agar Dilution Method, Staphylococcus epidermidis; settings: pH 7.2, read-out: Minimum Inhibitory Concentration
# Procedure: as §1
# Proteus rettgeri KY4289 = test: Antibacterial activity, Heart Infusion Agar Dilution Method, Proteus rettgeri KY4289; settings: for MIC: Providencia rettgeri, pH 7.2, read-out: Minimum Inhibitory Concentration
# Procedure: as §1
# [6] = test system: Pseudomonas aeruginosa 145; test: Antibacterial activity, Heart Infusion Agar Dilution Method, Pseudomonas aeruginosa 145; settings: Pseudomonas aeruginosa, 145, pH 7.2; read-out: Minimum Inhibitory Concentration
# Procedure: as §1
# Escherichia coli NIHJC2 = test: Antibacterial activity, Heart Infusion Agar Dilution Method, Escherichia coli NIHJC2
# Procedure: as §1
# Serratia marcescens T26 = test: Antibacterial activity, Heart Infusion Agar Dilution Method, Serratia marcescens T26; settings: pH 7.2, read-out: Minimum Inhibitory Concentration
# Microorganism = test: Antimicrobial activity as shown in table (overall statement); settings: as shown in table below
# Procedure: as §1
# [7] = Escherichia coli Juhl, Heart Infusion Agar Dilution, pH 7.2, read-out: Minimum Inhibitory Concentration
# [8] = Escherichia coli NIHJC2, Heart Infusion Agar Dilution, pH 7.2, read-out: Minimum Inhibitory Concentration
Structure (SMILES),MIC [1] [µg/mL],MIC (Escherichia coli Juhl; [7]) [µg/mL],MIC (Proteus vulgaris 6897) [µg/mL],MIC (Pseudomonas putida F264) [µg/mL],MIC (Proteus mirabilis 1287) [µg/mL],MIC (Proteus morganii KY4298) [µg/mL],MIC [2] [µg/mL],MIC [3] [µg/mL],MIC (Serratia marcescens T55) [µg/mL],MIC [4] [µg/mL],MIC [5] [µg/mL],MIC (Proteus rettgeri KY4289) [µg/mL],MIC [6] [µg/mL],MIC (Escherichia coli NIHJC2; [8]) [µg/mL],MIC (Serratia marcescens T26) [µg/mL],other results
"CO/N=C(\C(=O)N[C@@H]1C(=O)N2C(C(=O)O)=C[C@@H](C)C[C@H]12)c1csc(N)n1 (relative stereo) [Example 38, (±)-cis-7β-[2-(2-amino-4-thiazolyl)-2-syn-methoxyiminoacetamido]-4α-methyl-1-azabicyclo[4,2,0]oct-2-en-8-one-2-carboxylic acid]",≤ 0.05,≤ 0.05,≤ 0.05,≤ 0.05,≤ 0.05,≤ 0.05,12.5,≤ 0.05,0.1,12.5,12.5,≤ 0.05,> 100,≤ 0.05,,
"CO/N=C(\C(=O)N[C@@H]1C(=O)N2C(C(=O)O)=CCC[C@H]12)c1csc(N)n1 (relative stereo) [Example 40, (±)-cis-7-[2-(2-amino-4-thiazolyl)-2-syn-methoxyiminoacetamido]-1-azabicyclo[4,2,0]oct-2-en-8-on-2-carboxylic acid]",≤ 0.05,≤ 0.05,≤ 0.05,0.1,≤ 0.05,≤ 0.05,12.5,≤ 0.05,≤ 0.05,12.5,12.5,≤ 0.05,50,≤ 0.05,0.78,
"CC(=O)O[C@@H]1C=C(C(=O)O)N2C(=O)[C@@H](NC(=O)Cc3cccs3)[C@H]2C1 (relative stereo) [Example 41, (±)-cis-7β-(2-thienylacetamido)4α-acetoxy-1-azabicyclo[4,2,0]oct-2-en-8-on-2-carboxylic acid]",25,100,> 100,> 100,> 100,> 100,3.12,> 100,> 100,25,12.5,> 100,> 100,100,> 100,
"N[C@@H](C(=O)NC1C(=O)N2C(C(=O)O)=CCCC12)c1ccccc1 (single isomer, unassigned) [Example 26 A isomer]",,,,,,,,,,,,,,,,"Minimum Inhibitory Concentration ([1]; pH 7.2): 50 µg/mL; Minimum Inhibitory Concentration (Escherichia coli Juhl; Escherichia coli Juhl, Heart Infusion Agar Dilution, pH 7.2): 100 µg/mL; Minimum Inhibitory Concentration (Proteus vulgaris 6897; pH 7.2): 25 µg/mL; Minimum Inhibitory Concentration (Proteus mirabilis 1287; pH 7.2): 25 µg/mL; Minimum Inhibitory Concentration (Proteus morganii KY4298; pH 7.2): 50 µg/mL; Minimum Inhibitory Concentration ([3]; pH 7.2): 50 µg/mL; Minimum Inhibitory Concentration (Serratia marcescens T55; pH 7.2): 100 µg/mL; Minimum Inhibitory Concentration (Proteus rettgeri KY4289; pH 7.2): 6.25 µg/mL; Minimum Inhibitory Concentration (Escherichia coli NIHJC2; Escherichia coli NIHJC2, Heart Infusion Agar Dilution, pH 7.2): 50 µg/mL"
"CCN1CCN(C(=O)NC(C(=O)NC2C(=O)N3C(C(=O)O)=CCCC23)c2ccccc2)C(=O)C1=O (stereo in doubt) [Example 28, (±)-cis-7-[(R)-2-phenyl-2-(4-ethyl-2,3-dioxo-1-piperazinylcarbonylamino)acetamido]-1-azabicyclo[4,2,0]oct-2-en-8-one-2-carboxylic acid]",25,1.56,< 0.05,6.25,1.56,3.12,0.78,< 0.05,3.12,3.12,3.12,6.25,100,1.56,25,antimicrobial activity (in words) (Microorganism): strong antimicrobial activity
"Cc1nnc(SCC2=C(C(=O)O)N3C(=O)[C@@H](NC(=O)Cn4cnnn4)[C@H]3SC2)s1 [Cefazolin, reference compound]",3.12,,12.5,> 100,12.5,> 100,< 0.05,0.78,50,0.4,0.78,25,> 100,,> 100,"MIC (Escherichia coli Juhl; Escherichia coli, pH 7.2, read-out: Minimum Inhibitory Concentration): 1.56 µg/mL; MIC (Escherichia coli NIHJC2; Escherichia coli, NIHJC2, pH 7.2, read-out: Minimum Inhibitory Concentration): 1.56 µg/mL"
N[C@@H](C(=O)N[C@@H]1C(=O)N2C(C(=O)O)=CCC[C@H]12)c1ccccc1 [Example 26 B isomer],3.12,3.12,50,100,12.5,50,0.4,0.78,12.5,6.25,3.12,12.5,,3.12,,antimicrobial activity (in words) (Microorganism): stronger antimicrobial activity than the more polar isomer
